Data set [1] has as its system PBMCs from patients with schizophrenia and co-morbid depression. In words: Post-hoc analysis of inflammatory biomarkers in PBMCs, phase 3 clinical trial. Format: in vivo, human. As for the experimental part: A randomized, double-blind, placebo-controlled, phase 3 clinical trial was conducted with 450 patients with schizophrenia, aged 18 to 60 years, who were experiencing an acute exacerbation of psychosis. Patients were included if they were experiencing an acute exacerbation of psychosis, defined as a total score on the Brief Psychiatric Rating Scale of […] or higher, with a score of 4 or higher on 2 or more positive symptoms, and onset of the acute episode within 4 weeks of screening. Patients were required to have a score of 4 or higher, indicating moderate to severe disease severity, on the Clinical Global Impression-Severity of Illness (CGI-S) at screening and baseline. Severity of illness was confirmed at baseline by a Positive and Negative Syndrome Scale (PANSS) total score of 70 or higher, indicating moderate to extreme symptoms of schizophrenia. A subgroup of these patients experienced co-morbid depression symptoms at baseline (defined as having a Calgary Depression Scale for Schizophrenia (CDSS) score greater than 6 at baseline). Full details of the clinical study were reported in Correll et al., JAMA Psychiatry, 77(4): 349-358 (2020).
Using blood samples stored from the study, a post-hoc analysis of inflammatory biomarkers in PBMCs from the patients with schizophrenia and co-morbid depression is conducted. […] Day 0 samples are available for 20 patients, while day 28 samples are available only for 18 patients. Mean baseline CDSS is 10.0, and mean baseline PANSS total score is 88.7 in the selected patients.
Samples were processed to isolate PBMC according to standard procedures using the Ficoll-Paque method. Statistical analysis was performed using the paired t-test, two-tailed. Samples were tested for C-reactive protein (CRP), serum amyloid A (SAA), soluble CAM-1, soluble VCAM-1, IL-1β, TNF-αL, IL-6, IL-10, IL-2, IL-8, IL-13, and IFN-γ. ICAM-1 and VCAM-1 are expressed by the vascular endothelium, macrophages, and lymphocytes. Upon cytokine stimulation, their concentrations greatly increase. ICAM-1 can be induced by IL-1β and TNF. ICAM and VCAM proteins may also be involved in pathogen transit into CNS.
The results are shown in the table below (biomarker levels expressed in ng/mL; some values of N are less than the patient totals due to samples with levels of biomarker below the minimum for quantification): […]

The test system of data set [2] is patients with schizophrenia. The data set is described as follows: Randomized, double-blind, placebo-controlled phase 3 clinical trial in schizophrenia. Format: in vivo, human. As to the method: A randomized, double-blind, placebo-controlled, phase 3 clinical trial was conducted with 450 patients with schizophrenia, aged 18 to 60 years, who were experiencing an acute exacerbation of psychosis. Patients were included if they were experiencing an acute exacerbation of psychosis, defined as a total score on the Brief Psychiatric Rating Scale of […] or higher, with a score of 4 or higher on 2 or more positive symptoms, and onset of the acute episode within 4 weeks of screening. Patients were required to have a score of 4 or higher, indicating moderate to severe disease severity, on the Clinical Global Impression-Severity of Illness (CGI-S) at screening and baseline. […]
The primary efficacy end point was mean change from baseline to day 28 in the Positive and Negative Syndrome Scale (PANSS) total score versus placebo. […] The PANSS subscale scores, social function, safety, and tolerability were also assessed. Primary and key secondary efficacy measures were assessed weekly. Safety was assessed by treatment-emergent adverse events (TEAEs), modified physical examinations, 12-lead electrocardiograms (ECGs), vital signs, and clinical laboratory tests (blood and urine samples for clinical laboratory analysis were collected from all subjects upon screening and on Days 1, 8, 28, and 33, following overnight fast).

In data set [3] the test system is blood-brain barrier (NaFl brain penetration). The data set is described as follows: BBB permeability assay (sodium fluorescein), LPS paradigm. Format: in vivo, mouse. To be noted: mice, 2 h, label LPS = LPS alone, label Luma = Luma 3 mg/kg IP co-injected with LPS. As to the method: BBB Permeability Assay. […] Mice are perfused with 15 ml 1×PBS solution.
Systemic inflammation is associated with increased permeability of the BBB, and this has been discussed as a potential factor underlying depression pathophysiology. […] Forty-five minutes before sample collection, mice receive NaFl injections (200 μl of 10% solution, IP) (Table 3).

The mark [4] stands for this setting: Day 28 of 60 mg lumateperone once daily, PBMC, schizophrenia patients with co-morbid depression.

Take `CN1CCN2c3c(cccc31)[C@@H]1CN(CCCC(=O)c3ccc(F)cc3)CC[C@@H]12` [Luma, lumateperone]: in data set [1] (setting [4]), the “CRP, Median” value worked out at 38.0 ng/mL; the “IFN-γ, Average” value is recorded as 0.86 ng/mL; the “IFN-γ, Median” value worked out at 0.71 ng/mL; the “IL-1β, Median” value is reported as 0.74 ng/mL. Besides, in data set [1] (setting [4]), the “IL-2, Average” value was found to be 0.37 ng/mL; the “IL-2, Median” value is 0.25 ng/mL; the “IL-6, Average” value amounted to 0.55 ng/mL; the “IL-6, Median” value came out at 0.32 ng/mL. Besides, in data set [1] (setting [4]), the “IL-8, Median” value was determined as 44.0 ng/mL; the “IL-10, Median” value is on record as 0.21 ng/mL; the “TNF-α, Average” value came out at 0.83 ng/mL; the “TNF-α, Median” value is listed as 0.43 ng/mL. In addition, the “sVCAM-1, Median” value in data set [1] (setting [4]) amounted to 42.0 ng/mL. Moreover, the “Levels of inflammatory biomarkers in blood cells (PBMCs)” value in data set [1] (after 28 days of treatment, versus baseline, patients with schizophrenia and co-morbid depression) is “significantly reduced”. The Symptoms of schizophrenia entry in data set [2] (patients with acute exacerbation of psychosis, 60 mg or 40 mg lumateperone tosylate once daily for 28 days vs placebo) is on record as “effective for improving the symptoms of schizophrenia”. In addition, the Safety profile entry in data set [2] (patients with schizophrenia, 60 mg or 40 mg lumateperone tosylate once daily for 28 days) is listed as “favorable safety profile”.
On to “lipopolysaccharide [LPS, reference compound]”, for which, in data set [3], the “NaFl brain penetration (cerebrum/serum ratio)” value is 1.406 ± 0.0873 arbitrary units normalized to control.

The values are drawn from patent publication US12414948B2, “Methods” (INTRA-CELLULAR THERAPIES, INC., priority 2022, dated 2025).
